Among the data in PubChem BioAssay AID330 (DTP/NCI, 2004) are T/C values, retold here.

Structures are written as SMILES. Values joined by “and” are separate entries in the source; they are usually repeats but may differ in a detail not shown here. Identical values can stand only once. Inconclusive results and toxic doses are left out.

In this assay the test system is P388 leukemia ip, CD2F1 mice, survival T/C. Description: NCI In Vivo Anticancer Drug Screen. Data for tumor model P388 Leukemia (intraperitoneal) in CD2F1 (CDF1) mice. Particulars: endpoint: median survival time, higher = longer survival. The procedure, abridged: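 Mice carrying the transplanted tumor received test compound or vehicle. Survival was recorded in each group, and the value is the treated-group measurement divided by that of the vehicle-treated control group.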

[1] abbreviates: dose: 50.0 mg/kg/injection, schedule: Q01DX005 (ip), vehicle: saline with Tween-80.
Setting [2] is: dose: 100.0 mg/kg/injection, schedule: Q01DX005 (ip), vehicle: saline with Tween-80.
[3] abbreviates: dose: 200.0 mg/kg/injection, schedule: Q01DX005 (ip), vehicle: saline with Tween-80.
The mark [4] stands for this setting: dose: 60.0 mg/kg/injection, schedule: Q01DX005 (ip), vehicle: saline with Tween-80.
Where [5] appears, read: dose: 120.0 mg/kg/injection, schedule: Q01DX005 (ip), vehicle: saline with Tween-80.
Setting [6] is: dose: 240.0 mg/kg/injection, schedule: Q01DX005 (ip), vehicle: saline with Tween-80.
[7] abbreviates: dose: 100.0 mg/kg/injection, schedule: Q01DX001 (ip), vehicle: Klucel (hydroxypropylcellulose) (HPC).
The mark [8] stands for this setting: dose: 200.0 mg/kg/injection, schedule: Q01DX001 (ip), vehicle: Klucel (hydroxypropylcellulose) (HPC).
The mark [9] stands for this setting: dose: 50.0 mg/kg/injection, schedule: Q01DX005 (ip), vehicle: Klucel (hydroxypropylcellulose) (HPC).
Setting [10] is: dose: 100.0 mg/kg/injection, schedule: Q01DX005 (ip), vehicle: Klucel (hydroxypropylcellulose) (HPC).
Setting [11] is: dose: 50.0 mg/kg/injection, schedule: Q01DX009 (ip), vehicle: saline.
Where [12] appears, read: dose: 100.0 mg/kg/injection, schedule: Q01DX009 (ip), vehicle: saline.
[13] abbreviates: dose: 200.0 mg/kg/injection, schedule: Q01DX009 (ip), vehicle: saline.
Setting [14] is: dose: 50.0 mg/kg/injection, schedule: Q01DX009 (ip), vehicle: saline with Tween-80.
[15] abbreviates: dose: 100.0 mg/kg/injection, schedule: Q01DX009 (ip), vehicle: saline with Tween-80.
Where [16] appears, read: dose: 200.0 mg/kg/injection, schedule: Q01DX009 (ip), vehicle: saline with Tween-80.
Setting [17] is: dose: 100.0 mg/kg/injection, schedule: Q04DX003 (ip), vehicle: saline.
Setting [18] is: dose: 200.0 mg/kg/injection, schedule: Q04DX003 (ip), vehicle: saline.
[19] abbreviates: dose: 60.0 mg/kg/injection, schedule: Q01DX005 (ip), vehicle: saline.
[20] abbreviates: dose: 120.0 mg/kg/injection, schedule: Q01DX005 (ip), vehicle: saline.
[21] abbreviates: dose: 240.0 mg/kg/injection, schedule: Q01DX005 (ip), vehicle: saline.
The mark [22] stands for this setting: dose: 100.0 mg/kg/injection, schedule: Q04DX002 (ip), vehicle: Klucel (hydroxypropylcellulose) (HPC).
Where [23] appears, read: dose: 200.0 mg/kg/injection, schedule: Q04DX002 (ip), vehicle: Klucel (hydroxypropylcellulose) (HPC).

For the compound `COc1ccc(C(OC(C)(C)C)c2cc(C(C)(C)C)cc(C(C)(C)C)c2O)cc1` (configuration not stated), the T/C is, setting by setting: (dose: 50.0 mg/kg/injection, schedule: Q01DX005 (ip), vehicle: distilled water + alcohol) 101 % of control; (dose: 100.0 mg/kg/injection, schedule: Q01DX005 (ip), vehicle: distilled water + alcohol) 104 % of control; (dose: 200.0 mg/kg/injection, schedule: Q01DX005 (ip), vehicle: distilled water + alcohol) 97 % of control.

Consider `O=C1CC2C(=O)N(Cc3ccccc3)C(=O)C2C(=O)N1` (configuration not stated), for which the T/C is 99 % of control under setting [1], 97 % of control under setting [2] and 92 % of control under setting [3].

Take `NP1(Oc2ccc(F)cc2)=NP(N)(Oc2ccc(F)cc2)=NP(Oc2ccc(F)cc2)(Oc2ccc(F)cc2)=N1` (configuration not stated): the T/C is, setting by setting: under setting [4], 90 % of control; under setting [5], 96 % of control; under setting [6], 89 % of control.

`CN(C)CCCNc1nnc(NCCCN(C)C)c2cc3ccccc3cc12`: the T/C by setting is: (dose: 7.5 mg/kg/injection, schedule: Q01DX005 (ip), vehicle: saline) 98 % of control; (dose: 15.0 mg/kg/injection, schedule: Q01DX005 (ip), vehicle: saline) 94 % of control; (dose: 30.0 mg/kg/injection, schedule: Q01DX005 (ip), vehicle: saline) 110 % of control.

Take `COC1=C(C)C(=O)c2c(c(C=O)c(Cl)n2C)C1=O`: the T/C runs as follows: under setting [7], 99 % of control; under setting [8], 103 % of control.

Take `Nc1c(/C=C/c2cc3ccc(C4=NCCN4)cc3[nH]2)[nH]c2cc(C3=NCCN3)ccc12`: the T/C is 111 % of control (dose: 12.5 mg/kg/injection, schedule: Q01DX005 (ip), vehicle: Klucel (hydroxypropylcellulose) (HPC)); 120 % of control (dose: 25.0 mg/kg/injection, schedule: Q01DX005 (ip), vehicle: Klucel (hydroxypropylcellulose) (HPC)); 189 % of control under setting [9]; 223 % of control under setting [10].

For `CCC1(c2ccccc2)CCC(C#N)C1=N` (configuration not stated), the T/C was 102 % of control under setting [7]; 100 % of control under setting [8]; 98 % of control (dose: 400.0 mg/kg/injection, schedule: Q01DX001 (ip), vehicle: Klucel (hydroxypropylcellulose) (HPC)).

For the compound `c1ccc2c(c1)-c1ccccc1C1NC21` (configuration not stated), the T/C (dose: 12.5 mg/kg/injection, schedule: Q01DX001 (ip), vehicle: saline with Tween-80) was 99 % of control and 110 % of control; the T/C (dose: 25.0 mg/kg/injection, schedule: Q01DX001 (ip), vehicle: saline with Tween-80) is 105 % of control and 110 % of control and 123 % of control; the T/C (dose: 50.0 mg/kg/injection, schedule: Q01DX001 (ip), vehicle: saline with Tween-80) was 113 % of control; the T/C under setting [1] was 112 % of control; the T/C (dose: 100.0 mg/kg/injection, schedule: Q01DX001 (ip), vehicle: saline with Tween-80) is 113 % of control; the T/C under setting [2] was 110 % of control. Further, the T/C under setting [3] was 119 % of control.

As to `O=C1OCCN1/N=C\c1ccccc1`, the T/C was 94 % of control under setting [11], 87 % of control under setting [12] and 90 % of control under setting [13].

In the case of `NNC(=O)c1ccc(N)cc1`, the T/C by setting is: under setting [14], 100 % of control; (dose: 50.0 mg/kg/injection, schedule: Q04DX003 (ip), vehicle: saline with Tween-80) 104 % of control; under setting [15], 100 % of control; (dose: 100.0 mg/kg/injection, schedule: Q04DX003 (ip), vehicle: saline with Tween-80) 104 % of control; under setting [16], 100 % of control.

With `NC(=S)NC(=O)c1cccs1`, the T/C runs as follows: under setting [14], 95 % of control; under setting [15], 94 % of control; under setting [16], 93 % of control.

As for `Cc1cc(C)c(OC2=C(c3c(C)cc(C)cc3C)C(=O)c3ccccc32)c(C)c1`, the T/C is, setting by setting: under setting [14], 94 % of control; under setting [15], 94 % of control; under setting [16], 86 % of control.

Turning to `Cc1cccc(NC(=O)NC2CCCCC2)c1`, the T/C is, setting by setting: under setting [11], 103 % of control; under setting [12], 102 % of control; under setting [13], 93 % of control.

`[Co].c1c[nH]cn1.c1c[nH]cn1.c1c[nH]cn1.c1c[nH]cn1.c1c[nH]cn1.c1c[nH]cn1`: the T/C is, setting by setting: (dose: 12.5 mg/kg/injection, schedule: Q01DX005 (ip), vehicle: saline with Tween-80) 103 % of control; (dose: 25.0 mg/kg/injection, schedule: Q01DX005 (ip), vehicle: saline with Tween-80) 94 % of control; under setting [1], 103 % of control and 107 % of control.

For the compound `CCOc1cc2c(cc1C(C)c1ccc(OCc3ccccc3)cc1)OCO2` (configuration not stated), the T/C runs as follows: under setting [9], 88 % of control; under setting [10], 96 % of control; (dose: 200.0 mg/kg/injection, schedule: Q01DX005 (ip), vehicle: Klucel (hydroxypropylcellulose) (HPC)) 91 % of control.

Consider `CC1(/C=C/c2ccccc2)OCCO1`, for which the T/C under setting [14] is 99 % of control, the T/C under setting [15] is 98 % of control and the T/C under setting [16] is 102 % of control.

For the compound `COc1cc(C2C3=C(CC(C)(C)CC3=O)Oc3cc4c(cc32)OCO4)cc(OC)c1OC` (configuration not stated), the T/C was 97 % of control under setting [4] and 98 % of control under setting [5].

In the case of `COc1ccc(C2C3CCCC(C3=O)C(c3ccc(OC)cc3)N2C)cc1` (configuration not stated), the T/C was 99 % of control under setting [17]; 97 % of control under setting [18]; 96 % of control (dose: 400.0 mg/kg/injection, schedule: Q04DX003 (ip), vehicle: saline).

As for `CCOP(=O)(CC=O)OCC`, the T/C by setting is: under setting [19], 95 % of control; under setting [20], 100 % of control; under setting [21], 101 % of control.

Take `CCCCCCCC(=O)N/N=C/c1ccc(O)c(OCC)c1`: the T/C is, setting by setting: under setting [1], 95 % of control; under setting [2], 90 % of control.

For `CCCCCCCCCCCCOC(=O)/C=C\C(=O)NC(N)=O`, the T/C under setting [22] is 117 % of control and the T/C under setting [23] is 123 % of control.

Consider `Cc1ccc(NC(=O)Oc2cc(C)c(Cl)cc2C)c([N+](=O)[O-])c1`, for which the T/C by setting is: under setting [14], 95 % of control; under setting [15], 87 % of control; under setting [16], 91 % of control.

Take `O=C(O)c1c(Br)c(Br)c(Br)c(Br)c1-c1c2ccc(=O)cc-2oc2cc(O)ccc12`: the T/C is 101 % of control under setting [4], 105 % of control under setting [5] and 101 % of control under setting [6].

As to `CC(Cl)CN(CC(C)Cl)c1ccc(-c2ccccc2)cc1` (configuration not stated), the T/C by setting is: (dose: 50.0 mg/kg/injection, schedule: Q01DX009 (ip), vehicle: Klucel (hydroxypropylcellulose) (HPC)) 105 % of control and 109 % of control; (dose: 100.0 mg/kg/injection, schedule: Q01DX009 (ip), vehicle: Klucel (hydroxypropylcellulose) (HPC)) 124 % of control.

As for `Nc1nc(N)c2nn(C3OC(CO)C(O)C3O)nc2n1` (configuration not stated), the T/C by setting is: (dose: 25.0 mg/kg/injection, schedule: Q01DX001 (ip), vehicle: saline) 103 % of control; (dose: 50.0 mg/kg/injection, schedule: Q01DX001 (ip), vehicle: saline) 94 % of control; (dose: 100.0 mg/kg/injection, schedule: Q01DX001 (ip), vehicle: saline) 105 % of control; (dose: 200.0 mg/kg/injection, schedule: Q01DX001 (ip), vehicle: saline) 100 % of control; (dose: 400.0 mg/kg/injection, schedule: Q01DX001 (ip), vehicle: saline) 100 % of control.

With `O=C(c1cccnc1)C(CCc1ccccn1)c1ccccn1` (configuration not stated), the T/C runs as follows: under setting [17], 100 % of control; under setting [18], 100 % of control.

For `COC(=O)C1=C(C(=O)OC)C(=Nc2ccccc2)c2ccccc2C1=O`, the T/C under setting [22] is 100 % of control; the T/C under setting [23] is 100 % of control; the T/C (dose: 400.0 mg/kg/injection, schedule: Q04DX002 (ip), vehicle: Klucel (hydroxypropylcellulose) (HPC)) was 110 % of control.

With `COP(=O)(CC(=O)CCCCCO[Si](C)(C)C(C)(C)C)OC`, the T/C is 98 % of control under setting [19], 99 % of control under setting [20] and 100 % of control under setting [21].
